{"source": "patent US20100113301A1", "about": "“METHOD FOR THE IDENTIFICATION AND/OR THE QUANTIFICATION OF A TARGET COMPOUND OBTAINED FROM A BIOLOGICAL SAMPLE UPON CHIPS” (Eppendorf Array Technologies, priority 1999, published 2010)", "tested_on": "Rat Liver Gene Expression", "assay": "Rat liver gene expression on Rat HepatoChips microarrays, colorimetric silver detection", "details": "liver mRNA of treated rat, 100 mg/kg per day orally for 4 days, raw spot intensity mean, 100 mg/kg/day", "protocol": "Female Sprague-Dawley CD rats (aged 10-12 weeks) were dosed orally with 100 mg/kg per day of either Sodium Phenobarbitone (PB) or pregnenalone 16-carbonitrile (PCN) (Sigma-Aldrich Co. Poole, Dorset, UK) for 4 days. Control animals received corresponding quantities (5 ml/kg body weight) of the 0.56% (w/v) gum tragacanth vehicle. Animals were killed by decapitation and the livers immediately removed for further mRNA extraction.\nThe arrays also include positive and negative controls for the hybridization process, an internal standard control and 8 housekeeping genes.\nThe Rat HepatoChips is composed of single strand DNA probes attached to the glass by a covalent link. The length of the DNA nucleotide sequences has been optimized. They are the same for all genes and are located near the 3′ end of the transcript. All probes have been designed to be gene specific and have been prepared using rat cDNAs.\nLabeled cDNA was prepared using 2 μg mRNA isolated using the FastTrack 2.0 mRNA isolation Kit (Invitrogen). A synthetic poly (A)+tailed mRNA was spiked to the purified mRNA as internal standard to assist in quantification and estimation of experimental variation introduced during labeling and reading. mRNA was added to 2 μl of oligo dT(12-18) primer (0.5 μg/ul) (Gibco BRL), RNase free water was used to bring the volume to 9 μl, and the mixture was denatured at 70° C. for 10 min and then chilled on ice for 5 min. The reverse transcription was performed by adding the following components to the annealed probe/template on ice: 4 μl of First Strand Buffer (250 mM Tris-HCl pH 8.3, 375 mM KCl, 15 mM MgCl2) (Gibco BRL), 2 ul of DTT 0.1 M (Gibco BRL), 40 units of RNasin ribonuclease inhibitor (Promega), 500 μM dATP (Roche), 500 μM dTTP (Roche), 500 μM dGTP (Roche), 80 μM dCTP (Roche), 80 μM biotin-1′-dCTP (NEN). The reaction mixture was mixed gently by flicking the tube and incubated for 5 min at room temperature. 300 units of SuperScript II RT (RNase H—) (Gibco BRL) was added to the reaction mixture and the reverse transcription was allowed to proceed for 90 min at 42° C. Then an additional 300 units of SuperScript II RT was added and incubation was continued at 42° C. for another 90 min. The reaction was ended by heat inactivation at 70° C. for 15 min. To remove RNA complementary to the cDNA, a treatment with RNase H was performed at 37° C. for 20 min following by a heat denaturation at 95° C. for 3 minutes and cooled on ice before use. No further RT product purification was necessary.\nThe hybridization was performed in a hybridization chamber (Biozym, Landgraaf, The Netherlands) containing the hybridization buffer ‘Hepatobuffer’ and a positive hybridization control (a biotinylated amplicons, at a concentration of 25 nM). Hybridization was carried out overnight at 60° C. The arrays were then washed four times for 2 min with washing buffer at room temperature.\nThe presence of biotinylated hybrids on the microarray was detected using a antibody anti-biotin conjugate coupled colloidal gold. The arrays were then incubated with a 1:100 dilution of conjugate solution in a blocking buffer (100 mM maleic buffer pH 7.5, 150 mM NaCl and 0.1% milk powder) for […] at room temperature. The array were then washed five times for 2 min at room temperature, rinsed briefly with deionized water then dried. Then array is incubated at room temperature for 5 min in the Silver Blue Solution (AAT, Namur, Belgium), rinsed in water, dried 5′ at 37° C. and read with the scanner described herein.\nThe scanner used had the following scanning parameters:\nBit depth: 16 bits grayscale (65536 grey levels)\nno additional correction of the image (i.e. standard values for contrast, brightness, . . . )\nScanning software: Silverfast from LaserSoft\nQuantification Software: Imagene 4.2 from Biodiscovery", "note": "Values joined by “and” are separate entries in the source; they are usually repeats but may differ in a detail not shown here. Identical values can stand only once.", "data": [{"smiles": "CCC1(c2ccccc2)C(=O)NC(=O)NC1=O", "note": "[phenobarbital, Sodium Phenobarbitone]", "values": [{"measurement": "Test Signal, ACO", "setting": "gene ACO", "value": "51686 16-bits grayscale and 51619 16-bits grayscale"}, {"measurement": "Test Signal, Albumin", "setting": "gene Albumin", "value": "63921 16-bits grayscale and 63641 16-bits grayscale"}, {"measurement": "Test Signal, ApoJ", "setting": "gene ApoJ", "value": "52452 16-bits grayscale and 55866 16-bits grayscale"}, {"measurement": "Test Signal, B-actin", "setting": "gene B-actin", "value": "52992 16-bits grayscale and 55039 16-bits grayscale"}, {"measurement": "Test Signal, Bax", "setting": "gene Bax", "value": "24767 16-bits grayscale and 27814 16-bits grayscale"}, {"measurement": "Test Signal, Bcl-2", "setting": "gene Bcl-2", "value": "21220 16-bits grayscale and 21509 16-bits grayscale"}, {"measurement": "Test Signal, C-jun", "setting": "gene C-jun", "value": "22382 16-bits grayscale and 23523 16-bits grayscale"}, {"measurement": "Test Signal, C-myc", "setting": "gene C-myc", "value": "27229 16-bits grayscale and 28315 16-bits grayscale"}, {"measurement": "Test Signal, C/EBP", "setting": "gene C/EBP", "value": "31394 16-bits grayscale and 31754 16-bits grayscale"}, {"measurement": "Test Signal, Cox-2", "setting": "gene Cox-2", "value": "20187 16-bits grayscale and 20484 16-bits grayscale"}, {"measurement": "Test Signal, Cyclin D1", "setting": "gene Cyclin D1", "value": "25036 16-bits grayscale and 25587 16-bits grayscale"}, {"measurement": "Test Signal, Cyp 1a1", "setting": "gene Cyp 1a1", "value": "20728 16-bits grayscale and 20972 16-bits grayscale"}, {"measurement": "Test Signal, Cyp 1b1", "setting": "gene Cyp 1b1", "value": "22231 16-bits grayscale and 21071 16-bits grayscale"}, {"measurement": "Test Signal, Cyp 2b", "setting": "gene Cyp 2b", "value": "62971 16-bits grayscale and 62867 16-bits grayscale"}, {"measurement": "Test Signal, Cyp 3a", "setting": "gene Cyp 3a", "value": "63098 16-bits grayscale and 63114 16-bits grayscale"}, {"measurement": "Test Signal, Cyp 4a1", "setting": "gene Cyp 4a1", "value": "35089 16-bits grayscale and 35673 16-bits grayscale"}, {"measurement": "Test Signal, Cyt oxidase 1", "setting": "gene Cyt oxidase 1", "value": "63947 16-bits grayscale and 62432 16-bits grayscale"}, {"measurement": "Test Signal, Elk", "setting": "gene Elk", "value": "20632 16-bits grayscale and 20630 16-bits grayscale"}, {"measurement": "Test Signal, Enoyl CoA", "setting": "gene Enoyl CoA", "value": "60758 16-bits grayscale and 60738 16-bits grayscale"}, {"measurement": "Test Signal, Erk-1", "setting": "gene Erk-1", "value": "22998 16-bits grayscale and 23360 16-bits grayscale"}, {"measurement": "Test Signal, Ferritin", "setting": "gene Ferritin", "value": "60237 16-bits grayscale and 59913 16-bits grayscale"}, {"measurement": "Test Signal, Fibronectin", "setting": "gene Fibronectin", "value": "47542 16-bits grayscale and 50240 16-bits grayscale"}, {"measurement": "Test Signal, GADD45", "setting": "gene GADD45", "value": "22359 16-bits grayscale and 22287 16-bits grayscale"}, {"measurement": "Test Signal, GADD153", "setting": "gene GADD153", "value": "23334 16-bits grayscale and 23216 16-bits grayscale"}, {"measurement": "Test Signal, GAPDH", "setting": "gene GAPDH", "value": "58466 16-bits grayscale and 60437 16-bits grayscale"}, {"measurement": "Test Signal, GSH reductase", "setting": "gene GSH reductase", "value": "24281 16-bits grayscale and 23937 16-bits grayscale"}, {"measurement": "Test Signal, Glutathione Theta 5", "setting": "gene Glutathione Theta 5", "value": "30062 16-bits grayscale and 32113 16-bits grayscale"}, {"measurement": "Test Signal, Glutatione Ya", "setting": "gene Glutatione Ya", "value": "63398 16-bits grayscale and 63872 16-bits grayscale"}, {"measurement": "Test Signal, HGF", "setting": "gene HGF", "value": "21195 16-bits grayscale and 20996 16-bits grayscale"}, {"measurement": "Test Signal, HGPT", "setting": "gene HGPT", "value": "26564 16-bits grayscale and 27506 16-bits grayscale"}, {"measurement": "Test Signal, HMG", "setting": "gene HMG", "value": "34978 16-bits grayscale and 36070 16-bits grayscale"}, {"measurement": "Test Signal, Histone Dacetyl", "setting": "gene Histone Dacetyl", "value": "21846 16-bits grayscale and 21766 16-bits grayscale"}, {"measurement": "Test Signal, Hox2", "setting": "gene Hox2", "value": "30000 16-bits grayscale and 29975 16-bits grayscale"}, {"measurement": "Test Signal, Hsp 70", "setting": "gene Hsp 70", "value": "23738 16-bits grayscale and 22628 16-bits grayscale"}, {"measurement": "Test Signal, II6", "setting": "gene II6", "value": "20776 16-bits grayscale and 20646 16-bits grayscale"}, {"measurement": "Test Signal, IKB", "setting": "gene IKB", "value": "21781 16-bits grayscale and 21227 16-bits grayscale"}, {"measurement": "Test Signal, JNK", "setting": "gene JNK", "value": "20743 16-bits grayscale and 20935 16-bits grayscale"}, {"measurement": "Test Signal, MDR1", "setting": "gene MDR1", "value": "27172 16-bits grayscale and 26841 16-bits grayscale"}, {"measurement": "Test Signal, Macroglobulin", "setting": "gene Macroglobulin", "value": "32619 16-bits grayscale and 33165 16-bits grayscale"}, {"measurement": "Test Signal, Mgmt", "setting": "gene Mgmt", "value": "23373 16-bits grayscale and 23981 16-bits grayscale"}, {"measurement": "Test Signal, MnSOD", "setting": "gene MnSOD", "value": "26695 16-bits grayscale and 26251 16-bits grayscale"}, {"measurement": "Test Signal, Myr", "setting": "gene Myr", "value": "22905 16-bits grayscale and 22579 16-bits grayscale"}, {"measurement": "Test Signal, NFKB", "setting": "gene NFKB", "value": "21439 16-bits grayscale and 21343 16-bits grayscale"}, {"measurement": "Test Signal, ODC", "setting": "gene ODC", "value": "23381 16-bits grayscale and 23303 16-bits grayscale"}, {"measurement": "Test Signal, P38", "setting": "gene P38", "value": "26227 16-bits grayscale and 28841 16-bits grayscale"}, {"measurement": "Test Signal, P53", "setting": "gene P53", "value": "25848 16-bits grayscale and 25221 16-bits grayscale"}, {"measurement": "Test Signal, PCNA", "setting": "gene PCNA", "value": "23374 16-bits grayscale and 23609 16-bits grayscale"}, {"measurement": "Test Signal, PPAR", "setting": "gene PPAR", "value": "20767 16-bits grayscale and 20704 16-bits grayscale"}, {"measurement": "Test Signal, Phospho A2", "setting": "gene Phospho A2", "value": "21966 16-bits grayscale and 21421 16-bits grayscale"}, {"measurement": "Test Signal, S29", "setting": "gene S29", "value": "50843 16-bits grayscale and 53202 16-bits grayscale"}, {"measurement": "Test Signal, Smp30", "setting": "gene Smp30", "value": "32696 16-bits grayscale and 31894 16-bits grayscale"}, {"measurement": "Test Signal, TGFbRII", "setting": "gene TGFbRII", "value": "22149 16-bits grayscale and 23021 16-bits grayscale"}, {"measurement": "Test Signal, TNF", "setting": "gene TNF", "value": "21082 16-bits grayscale and 20767 16-bits grayscale"}, {"measurement": "Test Signal, Telomerase", "setting": "gene Telomerase", "value": "23256 16-bits grayscale and 22745 16-bits grayscale"}, {"measurement": "Test Signal, Transferrin", "setting": "gene Transferrin", "value": "61525 16-bits grayscale and 61527 16-bits grayscale"}, {"measurement": "Test Signal, Tubulin", "setting": "gene Tubulin", "value": "36262 16-bits grayscale and 36054 16-bits grayscale"}, {"measurement": "Test Signal, UDPGT1a6", "setting": "gene UDPGT1a6", "value": "22769 16-bits grayscale and 22766 16-bits grayscale"}, {"measurement": "Test Signal, UDPGT1a", "setting": "gene UDPGT1a", "value": "52205 16-bits grayscale and 50981 16-bits grayscale"}, {"measurement": "Test Signal, Ubiquitin", "setting": "gene Ubiquitin", "value": "59171 16-bits grayscale and 59613 16-bits grayscale"}]}]}
